Test results reported in ChEMBL document CHEMBL1144455, “A small molecule-kinase interaction map for clinical kinase inhibitors” (Nat Biotechnol, 2005).

Tests used:
[1] = biological target: Serine/threonine-protein kinase pim-2 (Homo sapiens, UniProt Q9P1W9)
[2] = biological target: T1, Serine/threonine-protein kinase 36 (Homo sapiens, UniProt Q9NRP7)
T1 sequence (Q9NRP7 whole entry): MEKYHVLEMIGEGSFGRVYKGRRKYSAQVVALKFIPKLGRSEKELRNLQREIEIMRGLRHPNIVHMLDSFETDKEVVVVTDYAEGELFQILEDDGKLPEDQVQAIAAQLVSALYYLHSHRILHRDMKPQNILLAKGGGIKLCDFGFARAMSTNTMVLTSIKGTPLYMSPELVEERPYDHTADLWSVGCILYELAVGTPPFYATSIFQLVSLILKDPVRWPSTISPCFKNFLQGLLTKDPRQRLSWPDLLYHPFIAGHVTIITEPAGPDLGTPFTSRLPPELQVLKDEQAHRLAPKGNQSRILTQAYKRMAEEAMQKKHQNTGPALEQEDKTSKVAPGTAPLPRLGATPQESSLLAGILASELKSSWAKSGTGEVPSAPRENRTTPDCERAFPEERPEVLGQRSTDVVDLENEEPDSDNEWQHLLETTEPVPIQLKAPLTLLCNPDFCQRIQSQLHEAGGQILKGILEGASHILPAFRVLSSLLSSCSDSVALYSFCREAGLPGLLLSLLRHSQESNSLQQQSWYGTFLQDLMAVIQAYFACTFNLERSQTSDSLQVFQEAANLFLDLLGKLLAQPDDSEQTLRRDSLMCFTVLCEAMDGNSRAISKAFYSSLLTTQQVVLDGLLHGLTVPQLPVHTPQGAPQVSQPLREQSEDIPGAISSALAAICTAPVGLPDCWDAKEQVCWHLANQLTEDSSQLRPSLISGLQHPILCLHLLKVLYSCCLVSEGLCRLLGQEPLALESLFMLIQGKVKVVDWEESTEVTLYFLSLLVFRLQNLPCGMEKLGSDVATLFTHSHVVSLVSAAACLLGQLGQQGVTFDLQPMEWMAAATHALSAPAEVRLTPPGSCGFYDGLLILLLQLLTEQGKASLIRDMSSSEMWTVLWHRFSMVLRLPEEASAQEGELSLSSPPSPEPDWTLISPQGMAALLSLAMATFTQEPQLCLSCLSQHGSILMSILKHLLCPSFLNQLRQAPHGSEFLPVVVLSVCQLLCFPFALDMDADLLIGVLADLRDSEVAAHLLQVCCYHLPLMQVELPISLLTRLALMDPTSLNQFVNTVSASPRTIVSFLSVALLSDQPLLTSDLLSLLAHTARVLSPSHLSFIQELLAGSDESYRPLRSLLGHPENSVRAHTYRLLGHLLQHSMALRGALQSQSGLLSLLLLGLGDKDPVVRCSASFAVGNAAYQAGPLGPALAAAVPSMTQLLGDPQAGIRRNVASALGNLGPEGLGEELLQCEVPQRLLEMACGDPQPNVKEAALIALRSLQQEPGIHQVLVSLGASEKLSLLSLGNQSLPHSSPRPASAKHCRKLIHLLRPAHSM

[3] = biological target: Calcium/calmodulin-dependent protein kinase kinase 2 (Homo sapiens, UniProt Q96RR4)
Ephrin type-A receptor 4 = Ephrin type-A receptor 4 (Homo sapiens, UniProt P54764)
[4] = biological target: Dual specificity protein kinase CLK3 (Homo sapiens, UniProt P49761)
[5] = biological target: T2, Dual specificity protein kinase TTK (Homo sapiens, UniProt P33981)
T2 sequence (P33981 whole entry): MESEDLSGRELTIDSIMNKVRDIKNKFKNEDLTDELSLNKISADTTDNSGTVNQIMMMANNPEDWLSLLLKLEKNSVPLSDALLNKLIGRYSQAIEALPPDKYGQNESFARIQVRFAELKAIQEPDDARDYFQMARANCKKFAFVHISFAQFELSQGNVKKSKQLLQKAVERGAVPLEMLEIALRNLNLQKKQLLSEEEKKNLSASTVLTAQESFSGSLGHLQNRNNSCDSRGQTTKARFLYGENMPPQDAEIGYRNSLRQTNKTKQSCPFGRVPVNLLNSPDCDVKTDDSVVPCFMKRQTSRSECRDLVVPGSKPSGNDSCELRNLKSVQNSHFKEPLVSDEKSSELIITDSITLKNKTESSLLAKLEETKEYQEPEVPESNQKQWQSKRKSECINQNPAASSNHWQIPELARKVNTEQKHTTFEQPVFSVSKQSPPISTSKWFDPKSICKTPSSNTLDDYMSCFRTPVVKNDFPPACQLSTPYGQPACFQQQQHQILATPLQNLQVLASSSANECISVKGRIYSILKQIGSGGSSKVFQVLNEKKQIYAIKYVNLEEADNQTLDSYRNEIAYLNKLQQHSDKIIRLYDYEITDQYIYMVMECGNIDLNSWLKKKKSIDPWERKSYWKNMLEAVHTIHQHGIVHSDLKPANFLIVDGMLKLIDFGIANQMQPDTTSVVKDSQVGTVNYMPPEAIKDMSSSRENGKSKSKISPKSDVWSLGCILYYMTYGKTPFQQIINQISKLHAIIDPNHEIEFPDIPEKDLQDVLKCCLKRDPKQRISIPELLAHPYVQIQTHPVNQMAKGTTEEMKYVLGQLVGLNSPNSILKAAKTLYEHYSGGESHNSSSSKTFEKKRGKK

[6] = biological target: T3, Serine/threonine-protein kinase 17B (Homo sapiens, UniProt O94768)
T3 sequence (O94768 whole entry): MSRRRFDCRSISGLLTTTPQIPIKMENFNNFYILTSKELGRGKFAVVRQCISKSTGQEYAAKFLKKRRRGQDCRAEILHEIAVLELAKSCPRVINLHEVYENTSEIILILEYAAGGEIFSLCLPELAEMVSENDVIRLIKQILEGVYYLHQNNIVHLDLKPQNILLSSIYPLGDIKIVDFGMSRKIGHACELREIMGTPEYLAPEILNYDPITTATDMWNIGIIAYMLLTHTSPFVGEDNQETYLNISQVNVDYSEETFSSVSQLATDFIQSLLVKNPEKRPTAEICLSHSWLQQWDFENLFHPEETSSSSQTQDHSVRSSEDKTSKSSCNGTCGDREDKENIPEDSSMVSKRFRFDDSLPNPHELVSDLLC

[7] = biological target: Vascular endothelial growth factor receptor 3 (Homo sapiens, UniProt P35916)
[8] = biological target: Calcium/calmodulin-dependent protein kinase type 1 (Homo sapiens, UniProt Q14012)
[9] = biological target: Protein-tyrosine kinase 6 (Homo sapiens, UniProt Q13882)
[10] = biological target: Fibroblast growth factor receptor 2 (Homo sapiens, UniProt P21802)

Measured: Kd

Chain of Calcium/calmodulin-dependent protein kinase kinase 2 (Q96RR4 whole entry): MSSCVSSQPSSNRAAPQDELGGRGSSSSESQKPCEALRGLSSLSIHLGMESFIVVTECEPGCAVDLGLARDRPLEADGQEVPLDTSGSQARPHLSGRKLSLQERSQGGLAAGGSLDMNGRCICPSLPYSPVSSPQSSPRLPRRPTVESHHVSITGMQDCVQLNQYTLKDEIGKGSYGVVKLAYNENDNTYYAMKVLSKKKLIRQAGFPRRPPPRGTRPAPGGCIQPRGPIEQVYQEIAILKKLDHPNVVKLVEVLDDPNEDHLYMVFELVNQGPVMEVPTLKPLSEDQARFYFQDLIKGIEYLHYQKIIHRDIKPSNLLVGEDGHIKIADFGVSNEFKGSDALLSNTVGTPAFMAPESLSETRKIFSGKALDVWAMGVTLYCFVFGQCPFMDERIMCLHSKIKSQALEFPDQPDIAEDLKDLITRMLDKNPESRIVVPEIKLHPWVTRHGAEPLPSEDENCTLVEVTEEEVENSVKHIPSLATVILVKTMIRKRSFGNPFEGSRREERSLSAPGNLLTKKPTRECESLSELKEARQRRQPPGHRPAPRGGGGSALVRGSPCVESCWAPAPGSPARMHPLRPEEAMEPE
Chain of Protein-tyrosine kinase 6 (Q13882 whole entry): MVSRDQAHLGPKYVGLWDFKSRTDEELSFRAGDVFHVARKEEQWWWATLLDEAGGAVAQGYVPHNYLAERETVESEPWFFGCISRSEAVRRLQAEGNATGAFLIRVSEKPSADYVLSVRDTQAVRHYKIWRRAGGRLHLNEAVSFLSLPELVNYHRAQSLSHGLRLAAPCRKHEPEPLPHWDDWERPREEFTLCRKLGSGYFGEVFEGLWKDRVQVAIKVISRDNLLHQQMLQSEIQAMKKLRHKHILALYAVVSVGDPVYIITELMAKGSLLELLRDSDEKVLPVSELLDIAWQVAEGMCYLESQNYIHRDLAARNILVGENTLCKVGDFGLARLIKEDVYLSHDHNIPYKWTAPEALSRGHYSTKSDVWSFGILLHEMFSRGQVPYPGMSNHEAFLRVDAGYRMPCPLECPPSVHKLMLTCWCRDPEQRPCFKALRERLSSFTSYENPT
Chain of Dual specificity protein kinase CLK3 (P49761 whole entry): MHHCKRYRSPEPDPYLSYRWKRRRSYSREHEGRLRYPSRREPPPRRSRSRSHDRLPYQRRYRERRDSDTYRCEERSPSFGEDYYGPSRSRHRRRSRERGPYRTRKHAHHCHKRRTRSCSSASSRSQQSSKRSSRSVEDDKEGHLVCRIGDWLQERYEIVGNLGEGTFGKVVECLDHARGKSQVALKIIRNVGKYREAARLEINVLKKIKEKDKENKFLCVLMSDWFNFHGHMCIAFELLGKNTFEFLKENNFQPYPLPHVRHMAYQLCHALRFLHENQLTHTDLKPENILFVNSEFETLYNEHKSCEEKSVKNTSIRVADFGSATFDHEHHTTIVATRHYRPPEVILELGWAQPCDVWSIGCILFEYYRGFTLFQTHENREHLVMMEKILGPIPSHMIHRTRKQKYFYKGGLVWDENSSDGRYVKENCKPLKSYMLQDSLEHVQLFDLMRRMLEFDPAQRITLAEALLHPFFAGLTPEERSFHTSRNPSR
Chain of Serine/threonine-protein kinase pim-2 (Q9P1W9 whole entry): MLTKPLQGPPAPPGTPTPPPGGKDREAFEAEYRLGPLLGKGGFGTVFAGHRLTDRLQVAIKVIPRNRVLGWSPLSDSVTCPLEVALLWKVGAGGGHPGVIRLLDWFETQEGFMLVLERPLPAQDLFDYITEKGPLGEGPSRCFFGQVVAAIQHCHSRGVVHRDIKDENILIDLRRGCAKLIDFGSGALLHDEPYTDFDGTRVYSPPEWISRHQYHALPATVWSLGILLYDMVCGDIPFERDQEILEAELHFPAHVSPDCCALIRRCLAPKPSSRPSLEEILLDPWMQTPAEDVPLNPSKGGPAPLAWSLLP
Chain of Calcium/calmodulin-dependent protein kinase type 1 (Q14012 whole entry): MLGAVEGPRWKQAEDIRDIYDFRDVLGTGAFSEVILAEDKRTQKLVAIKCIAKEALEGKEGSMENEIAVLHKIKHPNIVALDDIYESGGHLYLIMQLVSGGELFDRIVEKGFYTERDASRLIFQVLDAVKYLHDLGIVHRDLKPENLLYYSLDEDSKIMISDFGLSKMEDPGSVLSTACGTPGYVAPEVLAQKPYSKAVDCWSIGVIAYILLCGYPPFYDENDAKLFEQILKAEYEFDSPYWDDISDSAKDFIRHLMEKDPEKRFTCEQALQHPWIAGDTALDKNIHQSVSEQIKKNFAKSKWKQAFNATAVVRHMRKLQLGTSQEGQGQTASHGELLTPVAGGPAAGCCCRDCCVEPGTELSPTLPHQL
Chain of Fibroblast growth factor receptor 2 (P21802 whole entry): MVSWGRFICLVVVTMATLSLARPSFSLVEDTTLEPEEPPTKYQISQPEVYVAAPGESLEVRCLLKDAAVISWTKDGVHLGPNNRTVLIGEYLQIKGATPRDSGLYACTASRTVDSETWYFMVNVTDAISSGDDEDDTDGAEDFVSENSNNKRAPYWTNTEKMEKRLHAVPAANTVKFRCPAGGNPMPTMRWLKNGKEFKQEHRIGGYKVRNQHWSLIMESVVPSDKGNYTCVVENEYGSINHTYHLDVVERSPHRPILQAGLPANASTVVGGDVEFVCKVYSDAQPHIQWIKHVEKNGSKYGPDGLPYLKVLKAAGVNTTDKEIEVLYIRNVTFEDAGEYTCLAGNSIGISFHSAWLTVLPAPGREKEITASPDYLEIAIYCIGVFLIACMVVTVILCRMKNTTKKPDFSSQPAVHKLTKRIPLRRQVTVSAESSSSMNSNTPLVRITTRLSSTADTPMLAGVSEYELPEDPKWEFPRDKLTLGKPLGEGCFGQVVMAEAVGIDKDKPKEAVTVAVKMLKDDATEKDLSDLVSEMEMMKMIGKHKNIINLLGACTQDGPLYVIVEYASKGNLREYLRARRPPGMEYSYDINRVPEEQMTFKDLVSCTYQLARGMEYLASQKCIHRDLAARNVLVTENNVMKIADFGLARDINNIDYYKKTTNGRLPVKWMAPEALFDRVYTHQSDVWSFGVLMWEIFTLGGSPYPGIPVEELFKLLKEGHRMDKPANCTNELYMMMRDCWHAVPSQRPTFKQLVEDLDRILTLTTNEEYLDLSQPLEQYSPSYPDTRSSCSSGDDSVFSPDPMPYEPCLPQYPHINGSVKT
Chain of Ephrin type-A receptor 4 (P54764 whole entry): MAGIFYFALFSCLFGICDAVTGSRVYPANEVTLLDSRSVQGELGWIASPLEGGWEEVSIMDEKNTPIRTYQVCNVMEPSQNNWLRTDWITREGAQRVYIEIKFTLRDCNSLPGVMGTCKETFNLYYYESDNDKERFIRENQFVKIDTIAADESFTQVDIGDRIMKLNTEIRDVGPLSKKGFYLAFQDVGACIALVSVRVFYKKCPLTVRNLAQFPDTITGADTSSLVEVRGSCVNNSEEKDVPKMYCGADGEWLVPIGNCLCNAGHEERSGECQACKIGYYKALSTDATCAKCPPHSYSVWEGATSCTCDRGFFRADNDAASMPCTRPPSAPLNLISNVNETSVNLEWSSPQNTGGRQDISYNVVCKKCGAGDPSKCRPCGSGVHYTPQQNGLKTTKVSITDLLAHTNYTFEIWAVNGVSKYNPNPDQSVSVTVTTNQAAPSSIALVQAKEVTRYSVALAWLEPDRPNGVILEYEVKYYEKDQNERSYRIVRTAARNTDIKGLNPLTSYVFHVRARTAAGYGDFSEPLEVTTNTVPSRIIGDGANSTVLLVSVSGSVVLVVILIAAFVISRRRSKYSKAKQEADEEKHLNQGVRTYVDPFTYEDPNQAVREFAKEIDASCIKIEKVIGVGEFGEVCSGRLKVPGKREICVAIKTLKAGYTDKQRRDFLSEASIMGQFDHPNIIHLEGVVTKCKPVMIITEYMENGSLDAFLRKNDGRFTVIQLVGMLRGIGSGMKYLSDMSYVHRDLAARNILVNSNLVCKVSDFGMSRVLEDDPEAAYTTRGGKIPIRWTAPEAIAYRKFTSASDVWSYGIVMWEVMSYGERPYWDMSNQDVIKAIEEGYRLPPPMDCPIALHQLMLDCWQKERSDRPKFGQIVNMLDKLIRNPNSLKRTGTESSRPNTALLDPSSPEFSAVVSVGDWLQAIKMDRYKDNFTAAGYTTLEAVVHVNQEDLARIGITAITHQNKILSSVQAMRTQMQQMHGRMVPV

C#Cc1cccc(Nc2ncnc3cc(OCCOC)c(OCCOC)cc23)c1 [ERLOTINIB]
not listed: [10]
Not Active: all other assays above

Cc1ccc(NC(=O)c2ccc(CN3CCN(C)CC3)cc2)cc1Nc1nccc(-c2cccnc2)n1 [IMATINIB]
not listed: [4]
Not Active: all other assays above

O=c1ncn2nc(Sc3ccc(F)cc3F)ccc2c1-c1c(Cl)cccc1Cl [NEFLAMAPIMOD]
not listed: Ephrin type-A receptor 4
Not Active: all other assays above

CCOc1cc2ncc(C#N)c(Nc3ccc(F)c(Cl)c3)c2cc1NC(=O)/C=C/CN(C)C [PELITINIB]
not listed: [2] | [3] | [4] | [6]
Not Active: all other assays above

Oc1ccc(-c2nc(-c3ccc(F)cc3)c(-c3ccncc3)[nH]2)cc1 [SB-202190]
not listed: [2] | [9]
Not Active: all other assays above

C[S+]([O-])c1ccc(-c2nc(-c3ccc(F)cc3)c(-c3ccncc3)[nH]2)cc1 (configuration not stated) [SB-203580]
not listed: [2] | [9]
Not Active: all other assays above

CC[C@H](CO)Nc1nc(NCc2ccccc2)c2ncn(C(C)C)c2n1 [SELICICLIB]
not listed: [5]
Not Active: all other assays above

Oc1c2ccccc2c2c3c(cccc13)N=N2 [SP-600125]
not listed: [1] | [3] | [5] | [8]
Not Active: all other assays above

COc1cc2c(N3CCN(C(=O)Nc4ccc(OC(C)C)cc4)CC3)ncnc2cc1OCCCN1CCCCC1 [TANDUTINIB]
not listed: [4]
Not Active: all other assays above
